# Data from article PMC5742831, “Inhibitors of Serine Proteases from a Microcystis sp. Bloom Material Collected from Timurim Reservoir, Israel” (Marine Drugs, 2017).
# Assays:
# chymotrypsin = chymotrypsin (Bos taurus, UniProt P00766); experiment: Protease inhibition assay, chymotrypsin; format: biochemical; conditions: substrate SGGPNA; Tris buffer pH 7.5; 37 °C; 5 min pre-incubation; kinetic absorbance 405 nm over 30 min; dilutions 0.011 µM to 45.5 µM; 4-parameter logistic fit
# Protocol: A sigmoidal curve of the enzyme inhibition versus the concentration of the inhibitor was observed that was fit to the 4-parameters logistic model. Assays were performed in 96-well plate format.
# The assay was performed in a Tris buffer (0.6 g TRIS HCl/100 mL H2O, pH 7.5). The enzyme and the substrate Suc-Gly-Gly-phenylalanine-p-nitroanilide (SGGPNA) were dissolved in the buffer at concentrations of 1 mg/mL. To each well were added 100 µL of buffer, 10 µL of enzyme, and 10 µL of sample. The plate was placed in the spectrophotometer at 37 °C. After 5 min, 100 µL of substrate solution was added to each well, and the plate was placed in the spectrophotometer for the kinetic measurement of the absorbance intensity over 30 min at a wavelength of 405 nm.
# [1] = HPLC mobile phase 0.1% TFA/MeCN, six degradation products from TFA catalyzed hydrolysis of the glutamine and Ahp residues, confirmed by LC-MS of the crude extract
structure (smiles),measurement,setting,value
CC(C)C[C@H]1C(=O)N(C)[C@@H](Cc2ccc(O)cc2)C(=O)N[C@@H](C(C)C)C(=O)O[C@H](C)[C@H](NC(=O)[C@H](Cc2ccc(O)cc2)NC(=O)[C@@H](O)Cc2ccc(O)cc2)C(=O)N[C@@H](CCC(N)=O)C(=O)N[C@H]2CC[C@@H](O)N1C2=O [Micropeptin TR1058 (1)],IC50,chymotrypsin,6.78 µM
same,Stability under the isolation conditions,[1],extremely unstable
